Measured values reported in US12435061B2 (priority 2020, dated 2025).
pIC50: −log10 of the molar value. In brackets after ≈: the same amount, converted by molar mass. Read-outs that look alike come from different tables or passages of the source.

How the values were obtained:
hTRPV3 [1] = target: T1, hTRPV3 (Homo sapiens (Human), UniProt Q8NET8); assay: Whole-cell patch clamp, hTRPV3 Phase 1 / Phase 2 currents; assay type: cell-based; details: Phase 1 current; for IC50: human TRPV3, read-out: hTRPV3 (nM) Phase 1; for pIC50: inward, whole-cell patch clamp, read-out: hTRPV3 Patch P1 Inwd
How it was run: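 Whole-cell recordings on induced TRPV3 cells replated on coverslips, held at −40 mV with 400 ms ramps from −120 to +100 mV every 5 s; currents read at −80 and +80 mV. Ringer's external solution; current activated by heating to ≥28 °C or 20 μM 2-APB.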

human hERG channels = human hERG channels (Homo sapiens (Human), UniProt Q12809); assay: hERG assay (patch clamp, CHO cells); assay type: cell-based
Method: hERG assay: Briefly, cells from a stable CHO cell line expressing human hERG channels were plated onto glass coverslips and used in patch clamp assays on the same day. After seal formation and break-in to whole-cell configuration, voltage steps were applied as follows: from the holding potential of −90 mV, a 2 second long step to +40 mV was applied, followed by a 1.5 second step to −50 mV. These steps were applied once every 5 seconds. The hERG current was measured at the peak of the outward tail current at −50 mV. The pipette solution was potassium aspartate based and the external solution was normal Ringer's.
All currents were recorded in whole-cell configuration using an Axopatch 200B controlled by pClamp 10 software (Molecular Devices). In each cell, when the current stabilized, the compound was perfused locally onto the cell. Two to three concentrations of the test compound were applied to each cell. At the end of compound testing, 10 μM verapamil was applied to completely block hERG currents and assess leak current.
Data were analyzed by computing the degree of current block after compound addition compared with the unblocked current amplitude. The unblocked current was predicted from the interpolation between the current amplitude prior to compound addition and after compound washout. The resulting percent block at each concentration was used to make a concentration-response plot and fitted to the Hill equation: percent block=minimum block+(maximum block-minimum block)/(1+10^(Hill slope*(log IC50−concentration))).

[2] = Aqueous solubility assay in Normal Ringer Solution; details: Normal Ringer Solution, saline or isotonic, kinetic from dmso stock
Method: Following vortex and incubation for a sufficient time (e.g. 40 minutes at room temperature), solutions were filtered, quenched with acetonitrile, and analyzed by Liquid Chromotography. Solubility Limits were determined by comparison to a standard curve.

[3] = Metabolic Stability assay, rat liver microsomes; assay type: in vitro ADME; details: read-out: LM T1/2 (min) rat
How it was run: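 Test article at 1 μM starting concentration incubated with human or rat liver microsomes at 37 °C, with the reaction started by NADPH regeneration components. Aliquots were quenched in cold acetonitrile/MeOH/H2O at 0, 7, 15, 30 and 60 min and analysed by HPLC/MS/MS.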

hTRPV3 [4] = target: T1, hTRPV3; assay: FLIPR Assay (calcium flux, HEK293 cells stably expressing TRPV3); assay type: cell-based; details: for pIC50: read-out: FLIPR IC50
Method: In Tables 3 and 4, Phase 1 refers to Phase 1 current for human (h) TRPV3 or rat (r) TRPV3, and Phase 2 refers to Phase 2 current for human (h) TRPV3 or rat (r) TRPV3. The hTRPV3 and rTRPV3 assays were performed as described herein. hERG refers to the inhibition the human ERG (hERG) channel. NaV1.5, refers to the pore forming aL-subunit of the voltage-dependent cardiac Na(+) channel and is an integral membrane protein involved in the initiation and conduction of action potentials. hTRPV3 HAMA IC50 refers to the IC50 of TRPV3 cells stably expressed in TRex-293 cells. Solubility Ringer refers to the compounds' solubility in Ringer's solution. LM T1/2 refers to liver microsome half-lives in either rat or human liver microsomes. FLIPR IC50 refers to the IC50 of the test compounds against recombinant hTRPV3 cells.
The cells were treated with IBSS and 20 mM HEPES adjusted to pH 7.4 in the presence of the fluorescent calcium indicator e.g. Fluo-4AM (5 uM) and the plates were incubated at 37° C. and […] for approximately 1 hour and cooled to room temperature. […] Relative Fluorescence Units (RFU) were measured for each response for signal maximum minus minimum during approximately 90 seconds after addition.

hTRPV3 [5] = target: T1, hTRPV3; assay: hTRPV3 HAMA IC50 assay (Hamamatsu FDSS6000 calcium flux, TRex-293 cells); details: read-out: hTRPV3 HAMA IC50; 2-APB stimulated calcium flux
Method: IC50s were calculated using CBIS from ChemInnovation (San Diego).

T1 sequence (Q8NET8 whole entry): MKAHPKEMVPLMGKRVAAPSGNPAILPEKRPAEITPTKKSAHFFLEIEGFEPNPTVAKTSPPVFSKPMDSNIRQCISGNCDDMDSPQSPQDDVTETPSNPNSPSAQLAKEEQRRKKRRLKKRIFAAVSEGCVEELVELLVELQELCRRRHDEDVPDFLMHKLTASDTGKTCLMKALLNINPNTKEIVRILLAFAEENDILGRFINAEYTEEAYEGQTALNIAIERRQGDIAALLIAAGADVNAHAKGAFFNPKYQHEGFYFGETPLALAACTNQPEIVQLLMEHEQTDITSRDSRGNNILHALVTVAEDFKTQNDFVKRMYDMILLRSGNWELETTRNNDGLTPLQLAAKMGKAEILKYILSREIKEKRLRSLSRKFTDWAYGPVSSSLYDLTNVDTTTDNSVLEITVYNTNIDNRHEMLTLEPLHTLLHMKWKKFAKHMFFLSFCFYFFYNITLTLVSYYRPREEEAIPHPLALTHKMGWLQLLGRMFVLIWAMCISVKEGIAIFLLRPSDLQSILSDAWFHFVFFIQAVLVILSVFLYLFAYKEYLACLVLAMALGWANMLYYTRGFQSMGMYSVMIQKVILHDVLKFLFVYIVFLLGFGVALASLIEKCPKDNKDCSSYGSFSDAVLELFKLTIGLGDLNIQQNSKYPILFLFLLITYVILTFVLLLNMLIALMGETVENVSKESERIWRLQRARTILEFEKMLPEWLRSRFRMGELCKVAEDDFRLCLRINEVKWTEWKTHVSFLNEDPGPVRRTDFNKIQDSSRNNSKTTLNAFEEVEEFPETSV
Sequence of human hERG channels (Q12809 whole entry): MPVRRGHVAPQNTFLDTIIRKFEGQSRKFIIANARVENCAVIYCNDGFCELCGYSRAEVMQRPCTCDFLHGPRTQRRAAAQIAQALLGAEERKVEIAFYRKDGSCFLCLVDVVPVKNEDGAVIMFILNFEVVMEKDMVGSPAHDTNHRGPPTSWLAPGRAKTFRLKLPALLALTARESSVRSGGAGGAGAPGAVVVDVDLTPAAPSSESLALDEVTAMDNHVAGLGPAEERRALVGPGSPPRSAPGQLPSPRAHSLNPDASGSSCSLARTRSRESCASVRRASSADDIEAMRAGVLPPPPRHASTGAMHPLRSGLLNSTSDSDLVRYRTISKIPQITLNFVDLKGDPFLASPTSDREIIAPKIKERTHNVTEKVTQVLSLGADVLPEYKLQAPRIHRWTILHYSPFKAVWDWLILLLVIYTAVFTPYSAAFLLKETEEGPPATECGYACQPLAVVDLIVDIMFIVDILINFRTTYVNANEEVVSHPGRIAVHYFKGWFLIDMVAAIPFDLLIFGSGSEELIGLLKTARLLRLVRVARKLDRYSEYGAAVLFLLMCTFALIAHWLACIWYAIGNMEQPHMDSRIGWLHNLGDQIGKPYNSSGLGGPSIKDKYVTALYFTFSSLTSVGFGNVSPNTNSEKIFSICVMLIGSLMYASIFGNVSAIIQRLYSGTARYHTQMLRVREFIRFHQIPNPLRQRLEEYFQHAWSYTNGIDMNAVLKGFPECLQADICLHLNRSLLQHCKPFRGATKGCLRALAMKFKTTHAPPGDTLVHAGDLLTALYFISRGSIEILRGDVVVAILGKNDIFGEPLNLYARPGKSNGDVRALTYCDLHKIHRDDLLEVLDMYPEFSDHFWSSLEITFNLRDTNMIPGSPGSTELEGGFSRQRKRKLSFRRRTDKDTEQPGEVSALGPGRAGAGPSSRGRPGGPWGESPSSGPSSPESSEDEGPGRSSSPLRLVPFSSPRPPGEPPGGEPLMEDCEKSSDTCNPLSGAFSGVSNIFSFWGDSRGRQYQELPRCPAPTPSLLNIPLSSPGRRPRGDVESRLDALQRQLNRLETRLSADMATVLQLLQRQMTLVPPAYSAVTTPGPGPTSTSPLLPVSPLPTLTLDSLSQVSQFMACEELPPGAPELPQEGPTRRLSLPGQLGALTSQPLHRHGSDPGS

Compound	IC50 (hTRPV3 [1]) [nM]	IC50 (human hERG channels; (PL), read-out: hERG (nM) (PL))	solubility at 40 min [2] [µM]	half-life at 1 μM [3] [min]	pIC50 (hTRPV3 [4])	pIC50 (hTRPV3 [1])	further results
CCc1ccccc1Oc1ccc(C2CCN(C(=O)c3ncccc3Cl)C2)c(CO)c1 (stereo not drawn) [Compound 2-83, (3-chloropyridin-2-yl)(3-(4-(2-ethylphenoxy)-2-(hydroxymethyl)phenyl)pyrrolidin-1-yl)methanone]	95.1	16000	> 11	9.46			
COc1cncc(C(=O)N2CCC(c3ccc(-c4ccccc4C4CC4)cc3CO)C2)n1 (stereo not drawn) [Compound 2-125]					5.75		pIC50 (hTRPV3 [5]): 7.00
CC(C)c1ccccc1Oc1ccc(C2CCN(C(=O)c3ncccc3Cl)C2)c(C(N)=O)c1 (stereo not drawn) [Compound 2-26, 2-(1-(3-chloropicolinoyl)pyrrolidin-3-yl)-5-(2-isopropylphenoxy)benzamide]	217	10400	> 19.2	19.7		6.00 to 7.00	
CC(C)c1ccccc1-c1ccc(C2CCN(Cc3ccc(F)cn3)C2)c(CO)c1 (stereo not drawn) [Compound 2-95]	582	< 1000				6.00 to 7.00	
O=C(c1ccc(F)cn1)N1CCC(c2ccc(-c3ccccc3)nc2CO)C1 (stereo not drawn) [Compound 2-80]	163	5520				6.00 to 7.00	
Cc1nc(C(=O)N2CCC(c3ccc(-c4ccccc4C4CC4)cc3CO)C2)no1 (stereo not drawn) [Compound 2-128]					5.73		pIC50 (hTRPV3 [5]): 6.32
CC(C)c1ccccc1Oc1ccc(C2CC(=O)N(Cc3ccccn3)C2)c(CO)c1 (stereo not drawn) [Compound 2-93, 4-(2-(hydroxymethyl)-4-(2-isopropylphenoxy)phenyl)-1-(pyridin-2-ylmethyl)pyrrolidin-2-one]	205		~4.2 (≈ 1.75 µg/mL)	5.05		6.00 to 7.00	pIC50 (human hERG channels): ~5.22; IC50 (human hERG channels; (M), read-out: hERG): ~10800 nM
CCOc1ccccc1-c1ccc(C2CCN(C(=O)c3ccc(Cl)cn3)C2)c(CO)c1 (stereo not drawn) [Compound 2-69, (5-chloropyridin-2-yl)(3-(2′-ethoxy-3-(hydroxymethyl)biphenyl-4-yl)pyrrolidin-1-yl)methanone]	25.3	12300	> 16	12.6		7.00 to 8.00	
CCc1cncnc1Oc1ccc(C2CCN(C(=O)c3ncccc3Cl)C2)c(CO)c1 (stereo not drawn) [Compound 2-22, (3-chloropyridin-2-yl)(3-(4-(5-ethylpyrimidin-4-yloxy)-2-(hydroxymethyl)phenyl)pyrrolidin-1-yl)methanone]	> 3200	> 32000	> 20.3	31.8		< 6.00	
O=C(c1cnc(O)cn1)N1CCC(c2ccc(-c3ccccc3C3CC3)cc2CO)C1 (stereo not drawn) [Compound 2-130]							IC50 (hTRPV3 [4]; FLIPR IC50 (uM)): 4.8 µM
CCc1ccccc1-c1ccc(C2CCN(C(=O)c3ccc(C(F)(F)F)cn3)C2)c(CO)c1 (stereo not drawn) [Compound 2-47, (3-(2′-ethyl-3-(hydroxymethyl)biphenyl-4-yl)pyrrolidin-1-yl)(5-(trifluoromethyl)pyridin-2-yl)methanone]	18.4	17200	~5.6 (≈ 2.55 µg/mL)	28.1		7.00 to 8.00	
O=C(c1cccc(CO)n1)N1CCC(c2ccc(-c3ccccc3C3CC3)cc2CO)C1 (stereo not drawn) [Compound 2.152]					5.34		
CCc1oc(C(=O)N2CCC(c3ccc(-c4ccccc4C4CC4)cc3CO)C2)nc1C (stereo not drawn) [Compound 2.145]					5.35		
CC(C)c1ccccc1Oc1ccc(C2CCN(C(=O)c3cccc(Cl)n3)C2)c(CO)c1 (stereo not drawn) [Compound 2-20, (6-chloropyridin-2-yl)(3-(2-(hydroxymethyl)-4-(2-isopropylphenoxy)phenyl)pyrrolidin-1-yl)methanone]	62		~1.6 (≈ 0.722 µg/mL)	8.33		7.00 to 8.00	pIC50 (human hERG channels): ~5.27; IC50 (human hERG channels; (M), read-out: hERG): 3910 nM
COc1cnc(C(=O)N2CCC(c3ccc(-c4ccccc4C4CC4)cc3CO)C2)nc1 (stereo not drawn) [Compound 2.158]					5.21		
O=C(c1cnc(CO)cn1)N1CCC(c2ccc(-c3ccccc3C3CC3)cc2CO)C1 (stereo not drawn) [Compound 2-137]					< 5.00		
CC(C)c1ccccc1Oc1ccc(C2CCN(C(=O)c3ncccc3Cl)C2)c(CO)c1 (stereo not drawn) [Compound 2-12, (3-chloropyridin-2-yl)(3-(2-(hydroxymethyl)-4-(2-isopropylphenoxy)phenyl)pyrrolidin-1-yl)methanone]	101	12600	> 8	7.55		7.00 to 8.00	
O=C(c1cc(O)ccn1)N1CCC(c2ccc(-c3ccccc3C3CC3)cc2CO)C1 (stereo not drawn) [Compound 2-132]					< 5.00		
